Series [1] concerns Rattus norvegicus. Kind of series: Antiinflammatory activity in rat assessed as reduction in edema at 17 mg/kg, ip measured after 5 hrs relative to control. In kind it is functional. Also noted: scale not given: the % may be the effect or the level left.
A further series has as its target DNA topoisomerase II (Homo sapiens, UniProt P11388+Q02880). The series is described as follows: Inhibition of human Topoisomerase 2 incubated for 30 mins by ELISA assay. In kind it is protein assay.
Series [2] can be described thus: Protection index, ratio of TD50 for neurotoxicity in ip dosed mouse to ED50 for anticonvulsant activity in ip dosed mouse. As to conditions: in vivo, read-out: Ratio TD50/ED50. Format: toxicity, organism-based.
Series [3] deals with Mus musculus. The series is described as follows: Anticonvulsant activity in ip dosed mouse. In kind it is functional.
Series [4] deals with Rattus norvegicus. The series is described as follows: Antiinflammatory activity in rat assessed as reduction in carrageenan induced edema at 10 mg/kg, po measured after 4 to 5 hrs relative to control. In kind it is functional. Further details: scale not given: the % may be the effect or the level left. As to conditions: time 4-5 hrs. On the technique in general: In the carrageenan paw model, swelling and tenderness develop within hours.

Series [5] can be described thus: Inhibition of Mycobacterium tuberculosis shikimate dehydrogenase.
The subject of series [6] is Mycobacterium tuberculosis. The series is described as follows: Antimycobacterial activity against Mycobacterium tuberculosis H37Rv measured after 8 to 9 days. Format: functional. Conditions: time 8-9 day.
Series [7] relates to Mus musculus. Kind of series: Anticonvulsant activity in ip dosed mouse assessed as protection against PTZ-induced seizure. In kind it is functional.
For series [8], the system named is Plasmodium falciparum. The series is described as follows: microbe, parasite or virus in culture.
The test system of series [9] is Staphylococcus aureus. The series is described as follows: Antibacterial activity against Staphylococcus aureus 6538 assessed as bacterial growth inhibition incubated for 24 hrs. In kind it is functional.
Series [10] has as its system Staphylococcus aureus. Kind of series: Antibacterial activity against Methicillin-resistant Staphylococcus aureus assessed as bacterial growth inhibition incubated for 24 hrs. In kind it is functional.
Series [11] relates to Staphylococcus aureus. Kind of series: Antibacterial activity against Staphylococcus aureus assessed as bacterial growth inhibition incubated for 16 hrs. In kind it is functional.
For the next series, the system named is Candida albicans. Kind of series: Antifungal activity against Candida albicans assessed as fungal growth inhibition incubated for 16 hrs. In kind it is functional.
The subject of series [12] is Leishmania major. Kind of series: Potency index, ratio of test compound IC50 to amphotericin B IC50 for antileishmanial activity against promastigotes stage of leishmania major. Format: functional.
The test system of series [13] is Leishmania major. Kind of series: Antileishmanial activity against promastigotes stage of Leishmania major. In kind it is functional, organism-based.
Series [14] relates to Leishmania major. The series is described as follows: Potency index, ratio of test compound IC50 to miltefosine IC50 for antileishmanial activity against promastigotes stage of leishmania major. Format: functional.
Series [15] deals with Xanthomonas oryzae pv. oryzae. Kind of series: Antibacterial activity against Xanthomonas oryzae pv. oryzae assessed as bacterial growth inhibition by turbidimetric method. Format: functional, organism-based.
The species named for series [16] is Rattus norvegicus. The series is described as follows: Bronchodilator activity in Sprague-Dawley rat. In kind it is functional, organism-based.
For another series, the system named is MCF7. Kind of series: Anticancer activity against human MCF7 cells assessed a cell growth inhibition incubated for 48 hrs by SRB assay. Format: functional, cell-based. Conditions: MCF7, 48 h. Background: The SRB assay estimates cell density from bound dye.
The test system of series [17] is Trypanosoma cruzi. The series is described as follows: Trypanocidal activity against amastigote stage of Trypanosoma cruzi. Format: functional, organism-based.
For series [18], the system named is Trypanosoma cruzi. The series is described as follows: Trypanocidal activity against epimastigote stage of Trypanosoma cruzi. In kind it is functional, organism-based.
Series [19] can be described thus: Inhibition of 5 alpha reductase (unknown origin).
The subject of series [20] is Plasmodium falciparum. The series is described as follows: Antimalarial activity against Chloroquine resistant Plasmodium falciparum W2. In kind it is functional, organism-based.

The structures appear in SMILES notation. ≈ marks a conversion by molar mass, not a printed value.

The results in this text go back to ChEMBL document CHEMBL5244255, “An insight on medicinal attributes of 1,2,4-triazoles” (Eur J Med Chem, 2020).

The term IC50 denotes the concentration that gives 50% inhibition. One may read the MIC as the lowest concentration found to suppress growth. A word on the EC50: it is the concentration at which the effect is half-maximal.

As for `COc1ccc(-c2cc(-c3nnc(SCC(=O)Nc4ccc(/C(C)=N/O)cc4)n3-c3ccccc3)c3ccccc3n2)cc1`, the Activity in the series with Rattus norvegicus [1] worked out at 100%.

In turn, `O=C(CSc1nc2ccccc2n2cnnc12)Nc1ccc(S(=O)(=O)Nc2nccs2)cc1` displayed a concentration for half-maximal inhibition (IC50) against DNA topoisomerase II of 1.1 µM.

Consider `O=c1[nH]nc2n1-c1ccc(OCc3ccc(F)cc3)cc1OCC2`, for which the selectivity ratio in [2] was determined as 12.6. The compound also displayed an ED50 in the series with Mus musculus [3] of 26.3 mg/kg.

`Clc1cccc(Cl)c1Nc1ccccc1Cc1nncn1Nc1nc2ccccc2s1`: the Activity in the series on Rattus norvegicus [4] worked out at 85.31%.

Take `O=[N+]([O-])c1ccc(C2=Nn3c(nnc3-c3ccnc(F)c3)CC2)cc1`: the IC50 in [5] amounted to 73.57 µg/mL (≈ 217 µM). Also, the MIC in series [6] is 0.25 µg/mL (≈ 0.739 µM).

As to `CCCOc1ccc(-c2csc3nncn23)cc1`, in series [2], the selectivity ratio is 1.9. Besides, in the series with Mus musculus [7], the ED50 turned out to be 63.4 mg/kg and the TD50 worked out at 106 mg/kg.

In the series with Plasmodium falciparum [8], `Nc1cc(Cl)c(S(N)(=O)=O)cc1-c1nnc(S)n1-c1ccccc1` yielded an IC50 of 0.023 µg/mL (≈ 0.0602 µM).

Take `O=c1[nH]nc2n1-c1ccc(OCc3ccc(F)cc3)cc1SC2`: the selectivity ratio in series [2] worked out at 15.4. The ED50 with Mus musculus [3] was 9.2 mg/kg.

`CSc1nc(Cl)cc(Sc2nnc(-c3cc(C(F)(F)F)cc(C(F)(F)F)c3)[nH]2)n1`: the MIC in the series on Staphylococcus aureus [9] was determined as 1.8 µM (≈ 0.849 µg/mL); in the series with Staphylococcus aureus [10], 0.75 µg/mL (≈ 1.59 µM).

In the case of `COc1ccc(/C=N/n2c(S)nnc2CNC(=O)c2ccc(C)cc2)cc1OC`, the MIC in the series on Staphylococcus aureus [11] and in the series with Candida albicans was 3.12 µg/mL (≈ 7.59 µM) each time.

Regarding `CC(C)C(C(=O)O)N1C(N)=NNC1(C)c1ccccc1O` (configuration not stated), the “Ratio IC50” value with Leishmania major [12] and in the series on Leishmania major [14] was 36 each time. In addition, half-maximal inhibition in the series with Leishmania major [13] (IC50) was put at 0.0312 µg/mL (≈ 0.107 µM).

As for `CCOC(=O)c1nc(Sc2nnc3c(Cl)cccn23)c2ccccc2n1`, the 50% effective concentration (EC50) in series [15] amounted to 7.2 µg/mL (≈ 18.7 µM).

Take `FC(F)(F)c1cc(-c2nnc(Sc3cc(Cl)nc(Sc4ccccc4)n3)[nH]2)cc(C(F)(F)F)c1`: the results for the minimal inhibitory concentration (MIC) in the series with Staphylococcus aureus [9] and with Staphylococcus aureus [10] were 1.8 µM (≈ 0.961 µg/mL) and 0.43 µg/mL (≈ 0.805 µM), respectively.

For `C=Cn1c(SCC(=O)Nc2ccc(/C(C)=N/O)cc2)nnc1-c1cc(-c2ccc(OC)cc2)nc2ccccc12`, in the series on Rattus norvegicus [1], the Activity was determined as 111%.

With `Cc1nc2[nH]cc(-c3n[nH]c(=S)n3-c3ccccc3)c(=O)n2n1`, in the series listed under Rattus norvegicus [16], it took 18.6 µM to reach a half-maximal effect (EC50).

As to `NC1=NNC(c2ccccc2O)N1C(Cc1cc2ccccc2[nH]1)C(=O)O` (configuration not stated), the “Ratio IC50” value with Leishmania major [12] and in the series on Leishmania major [14] was 36 throughout. In addition, in the series on Leishmania major [13], it took 0.0312 µg/mL (≈ 0.0854 µM) to reach half-maximal inhibition (IC50).

In turn, `CC/C(=C(\c1ccccc1)c1ccc(OCCN(C)C)cc1)c1ccccc1` [TAMOXIFEN] displayed an IC50 with MCF7 of 8.38 µg/mL (≈ 22.6 µM).

As to `CC(C)C(C(=O)O)N1C(N)=NNC1c1ccccc1O` (configuration not stated), the “Ratio IC50” value in the series on Leishmania major [12] and in the series on Leishmania major [14] was 36 in each case. Half-maximal inhibition in the series with Leishmania major [13] (IC50) was put at 0.0312 µg/mL (≈ 0.112 µM).

Turning to `CC(C)SC1NN=C(/C=C/C=C/c2ccc3c(c2)OCO3)N1C1CCCCC1` (configuration not stated), the results for the IC50 in the series with Trypanosoma cruzi [17] and with Trypanosoma cruzi [18] were 3.61 µM and 3.18 µM, respectively.

As for `O=C(Nc1ccccc1)C1=NN(c2ccccc2)/C(=C2/C=NN(Cc3cc4ccccc4oc3=O)C2=O)N1c1ccccc1`, in series [19], the ED50 was found to be 0.15 µM.

Take `COc1ccc(-c2cc(-c3nnc(SCC(=O)Nc4ccc(/C(C)=N/O)cc4)n3-c3ccccc3)c3cc(C)ccc3n2)cc1`: the Activity with Rattus norvegicus [1] stood at 101%.

With `S=c1[nH]nc(/C=C/C=C/c2ccc3c(c2)OCO3)n1C1CCCCC1`, the IC50 in the series with Trypanosoma cruzi [17] turned out to be 8.87 µM; in the series on Trypanosoma cruzi [18], 18.3 µM.

With `O=c1c(-c2n[nH]c(=S)n2-c2ccccc2)c[nH]c2ncnn12`, in the series listed under Rattus norvegicus [16], the 50% effective concentration (EC50) stood at 57.1 µM.

In the series with Plasmodium falciparum [20], `COc1ccc(Nc2cc(C)nc3nc(C(F)(F)F)nn23)cc1` came in with a 50% inhibitory concentration (IC50) of 23 nM.

Regarding `NC(=O)N1c2ccccc2C=Cc2ccccc21` [CARBAMAZEPINE], in series [2], the selectivity ratio amounted to 6.4. The same compound registered an ED50 in the series on Mus musculus [3] of 11.8 mg/kg.
